Measured values published in patent US20090304692A1, “TRIAZINE COMPOUNDS AS PI3 KINASE AND MTOR INHIBITORS” (Wyeth, priority 2008, published 2009).
Read-outs that look alike come from different tables or passages of the source.

What was measured:
[1] = biological target: Human mTOR (FLAG-TOR) (Homo sapiens, UniProt P42345); experiment: mTOR kinase assay (DELFIA format, purified enzyme); type: biochemical; conditions: read-out: IC50 mTOR
[2] = tested on: human breast MDA-MB-361 tumor cell line; experiment: In vitro cell culture growth assay (MTS), MDA-MB-361; type: cell-based; conditions: Homo sapiens, MTS cell growth assay, three days after drug treatment, MDA-MB-361 cells, read-out: IC50 MDA-MB-361
[3] = tested on: human prostate PC3-mm2 tumor cell line; experiment: In vitro cell culture growth assay (MTS), PC3-mm2; type: cell-based; conditions: Homo sapiens, PC3MM2, 72 h, MTS cell growth assay, three days after drug treatment, PC3-mm2 cells; read-out: IC50 PC3-mm2
[4] = biological target: PI3K-α (Homo sapiens, UniProt P42336); experiment: PI3K-alpha fluorescence polarization assay; conditions: read-out: IC50 PI3Kα
[5] = biological target: PI3K-γ (Homo sapiens, UniProt P48736); experiment: PI3K-gamma fluorescence polarization assay; conditions: read-out: IC50 PI3Kγ
Chain of PI3K-γ (P48736 whole entry, species assumed): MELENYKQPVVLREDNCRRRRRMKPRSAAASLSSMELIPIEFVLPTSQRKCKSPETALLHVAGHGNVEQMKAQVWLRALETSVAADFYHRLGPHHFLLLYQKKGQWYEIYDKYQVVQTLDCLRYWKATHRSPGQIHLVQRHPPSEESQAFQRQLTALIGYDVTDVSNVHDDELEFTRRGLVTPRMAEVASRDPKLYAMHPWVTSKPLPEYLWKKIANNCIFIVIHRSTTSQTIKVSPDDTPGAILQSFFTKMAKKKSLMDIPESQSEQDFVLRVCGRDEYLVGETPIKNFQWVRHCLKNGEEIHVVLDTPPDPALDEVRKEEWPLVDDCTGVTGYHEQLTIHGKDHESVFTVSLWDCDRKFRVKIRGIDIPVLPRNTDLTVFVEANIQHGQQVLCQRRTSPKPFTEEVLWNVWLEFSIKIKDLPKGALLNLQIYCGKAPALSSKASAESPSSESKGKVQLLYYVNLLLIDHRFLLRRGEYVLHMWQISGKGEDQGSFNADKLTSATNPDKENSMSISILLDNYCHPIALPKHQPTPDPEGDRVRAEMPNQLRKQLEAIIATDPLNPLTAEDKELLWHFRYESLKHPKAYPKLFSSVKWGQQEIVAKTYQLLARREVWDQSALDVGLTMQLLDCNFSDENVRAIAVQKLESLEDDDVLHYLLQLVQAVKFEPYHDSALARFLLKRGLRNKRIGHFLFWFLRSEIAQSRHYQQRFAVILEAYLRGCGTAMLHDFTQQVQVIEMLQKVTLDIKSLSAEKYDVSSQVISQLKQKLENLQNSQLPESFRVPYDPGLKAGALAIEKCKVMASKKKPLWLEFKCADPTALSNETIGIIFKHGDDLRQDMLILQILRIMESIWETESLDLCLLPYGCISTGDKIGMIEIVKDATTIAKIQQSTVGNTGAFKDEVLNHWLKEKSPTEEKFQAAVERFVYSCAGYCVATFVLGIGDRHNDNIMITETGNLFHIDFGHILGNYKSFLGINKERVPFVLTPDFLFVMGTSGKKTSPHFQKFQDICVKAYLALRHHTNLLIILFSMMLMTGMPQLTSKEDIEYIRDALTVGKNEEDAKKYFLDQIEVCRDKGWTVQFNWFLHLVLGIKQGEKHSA

Chain of Human mTOR (FLAG-TOR) (P42345 1360-2549 limits assumed): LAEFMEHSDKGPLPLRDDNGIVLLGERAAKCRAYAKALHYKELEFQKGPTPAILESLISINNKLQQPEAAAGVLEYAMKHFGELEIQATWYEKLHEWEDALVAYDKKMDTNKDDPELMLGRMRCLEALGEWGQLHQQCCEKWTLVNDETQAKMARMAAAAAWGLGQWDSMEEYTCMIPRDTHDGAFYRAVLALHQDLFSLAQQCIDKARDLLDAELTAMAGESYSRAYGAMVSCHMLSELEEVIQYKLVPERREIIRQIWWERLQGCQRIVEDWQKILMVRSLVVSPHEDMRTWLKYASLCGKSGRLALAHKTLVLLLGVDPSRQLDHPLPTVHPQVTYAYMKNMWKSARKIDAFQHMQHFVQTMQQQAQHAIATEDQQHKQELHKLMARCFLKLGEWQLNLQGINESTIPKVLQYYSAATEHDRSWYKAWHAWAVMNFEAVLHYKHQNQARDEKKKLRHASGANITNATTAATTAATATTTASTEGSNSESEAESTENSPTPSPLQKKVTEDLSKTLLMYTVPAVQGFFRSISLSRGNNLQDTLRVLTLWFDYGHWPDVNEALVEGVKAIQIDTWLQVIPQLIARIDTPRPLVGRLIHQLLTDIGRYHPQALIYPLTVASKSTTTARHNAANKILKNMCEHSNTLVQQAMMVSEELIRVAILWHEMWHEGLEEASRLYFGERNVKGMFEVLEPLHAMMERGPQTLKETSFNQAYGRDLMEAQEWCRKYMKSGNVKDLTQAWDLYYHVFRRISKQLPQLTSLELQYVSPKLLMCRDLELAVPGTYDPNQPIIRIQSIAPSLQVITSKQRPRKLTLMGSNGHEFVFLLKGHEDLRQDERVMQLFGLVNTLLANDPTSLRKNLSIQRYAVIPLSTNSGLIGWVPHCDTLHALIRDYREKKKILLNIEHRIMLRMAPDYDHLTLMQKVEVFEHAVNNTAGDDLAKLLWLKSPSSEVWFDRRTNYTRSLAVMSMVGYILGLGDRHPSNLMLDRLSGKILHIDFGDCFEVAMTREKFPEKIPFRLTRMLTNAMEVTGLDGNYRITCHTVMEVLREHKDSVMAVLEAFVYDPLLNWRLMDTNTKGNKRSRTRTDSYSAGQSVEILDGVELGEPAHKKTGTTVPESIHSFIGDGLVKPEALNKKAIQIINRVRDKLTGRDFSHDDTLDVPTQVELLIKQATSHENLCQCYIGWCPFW
Chain of PI3K-α (P42336 whole entry, species assumed): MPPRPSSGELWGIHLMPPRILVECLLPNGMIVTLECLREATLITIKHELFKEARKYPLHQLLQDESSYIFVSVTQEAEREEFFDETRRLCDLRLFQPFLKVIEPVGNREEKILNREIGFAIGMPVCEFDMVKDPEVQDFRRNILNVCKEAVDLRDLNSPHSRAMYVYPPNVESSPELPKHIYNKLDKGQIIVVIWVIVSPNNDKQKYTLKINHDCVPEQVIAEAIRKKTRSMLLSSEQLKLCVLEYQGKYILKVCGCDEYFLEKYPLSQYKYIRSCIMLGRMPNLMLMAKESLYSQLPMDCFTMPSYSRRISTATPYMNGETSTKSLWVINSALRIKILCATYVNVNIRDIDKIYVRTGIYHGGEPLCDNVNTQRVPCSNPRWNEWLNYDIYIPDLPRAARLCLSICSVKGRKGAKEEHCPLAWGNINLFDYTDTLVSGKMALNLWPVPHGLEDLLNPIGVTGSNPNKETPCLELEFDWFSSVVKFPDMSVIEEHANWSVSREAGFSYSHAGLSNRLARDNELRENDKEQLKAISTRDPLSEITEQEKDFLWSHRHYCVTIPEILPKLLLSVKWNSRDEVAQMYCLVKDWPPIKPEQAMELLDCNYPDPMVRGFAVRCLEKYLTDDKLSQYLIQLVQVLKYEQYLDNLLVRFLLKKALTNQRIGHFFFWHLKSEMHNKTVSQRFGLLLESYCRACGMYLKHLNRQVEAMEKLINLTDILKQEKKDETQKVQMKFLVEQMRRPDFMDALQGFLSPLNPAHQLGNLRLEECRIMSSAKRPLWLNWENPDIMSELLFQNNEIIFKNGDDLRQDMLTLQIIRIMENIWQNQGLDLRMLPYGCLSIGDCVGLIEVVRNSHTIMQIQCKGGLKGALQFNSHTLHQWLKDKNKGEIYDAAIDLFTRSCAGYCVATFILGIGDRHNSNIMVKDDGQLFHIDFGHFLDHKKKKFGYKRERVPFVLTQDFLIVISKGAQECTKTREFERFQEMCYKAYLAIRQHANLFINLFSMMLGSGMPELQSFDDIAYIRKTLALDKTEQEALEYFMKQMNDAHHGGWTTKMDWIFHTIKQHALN
Chain of PI3K-α (P27986 whole entry partner, species assumed): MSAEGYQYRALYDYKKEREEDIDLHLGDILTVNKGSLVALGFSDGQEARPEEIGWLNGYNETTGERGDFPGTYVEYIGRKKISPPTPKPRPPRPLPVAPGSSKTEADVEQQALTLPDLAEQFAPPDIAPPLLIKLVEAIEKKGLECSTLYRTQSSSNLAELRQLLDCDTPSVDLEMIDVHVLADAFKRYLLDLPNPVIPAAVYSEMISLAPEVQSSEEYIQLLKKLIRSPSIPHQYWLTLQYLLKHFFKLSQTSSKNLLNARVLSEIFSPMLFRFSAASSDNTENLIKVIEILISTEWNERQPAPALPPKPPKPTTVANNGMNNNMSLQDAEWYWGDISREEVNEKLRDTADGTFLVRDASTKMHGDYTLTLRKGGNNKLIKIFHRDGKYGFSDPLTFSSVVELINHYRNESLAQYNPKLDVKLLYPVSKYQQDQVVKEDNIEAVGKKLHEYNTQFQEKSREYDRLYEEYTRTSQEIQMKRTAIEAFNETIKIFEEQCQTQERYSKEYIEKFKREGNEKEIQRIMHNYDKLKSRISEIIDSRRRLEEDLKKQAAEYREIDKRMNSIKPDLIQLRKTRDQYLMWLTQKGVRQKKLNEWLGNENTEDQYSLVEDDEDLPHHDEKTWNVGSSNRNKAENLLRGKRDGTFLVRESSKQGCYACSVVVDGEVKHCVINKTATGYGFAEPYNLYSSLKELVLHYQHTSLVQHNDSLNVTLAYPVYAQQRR

CCN1CCN(C(=O)c2ccc(NC(=O)Nc3ccc(-c4nc(N5CCOCC5)nc(N5CCN(C(=O)N(C)C)CC5)n4)cc3)cc2)CC1 [Example 649, 4-(4-{4-[({4-[(4-ethylpiperazin-1-yl)carbonyl]phenyl}carbamoyl)amino]phenyl}-6-morpholin-4-yl-1,3,5-triazin-2-yl)-N,N-dimethylpiperazine-1-carboxamide]
IC50 [1]: 6 nM | IC50 ([2]; MDA-MB-361, 72 h): 9 nM | IC50 [3]: 37 nM | IC50 [4]: 6.4 nM | IC50 [5]: 38 nM

OCc1cccc(-c2nc(N3CCOCC3)nc(N3C4CCC3COC4)n2)c1 [Example 682, {3-[4-morpholin-4-yl-6-(3-oxa-8-azabicyclo[3.2.1]oct-8-yl)-1,3,5-triazin-2-yl]phenyl}methanol]
IC50 [1]: 88.5 nM | IC50 ([2]; 72 h): 1040 nM | IC50 [3]: 766 nM | IC50 [4]: 84.3 nM | IC50 [5]: 1280 nM

Oc1cccc(-c2nc(N3CCOCC3)nc(N3C4CCC3COC4)n2)c1 [Example 683, 3-[4-morpholin-4-yl-6-(3-oxa-8-azabicyclo[3.2.1]oct-8-yl)-1,3,5-triazin-2-yl]phenol]
IC50 [1]: 25 nM | IC50 ([2]; 72 h): 673 nM | IC50 [3]: 584 nM | IC50 [4]: 121 nM | IC50 [5]: 1330 nM

Nc1nc2cc(-c3nc(N4CCOCC4)nc(N4C5CCC4COC5)n3)ccc2[nH]1 [Example 684, 5-[4-morpholin-4-yl-6-(3-oxa-8-azabicyclo[3.2.1]oct-8-yl)-1,3,5-triazin-2-yl]-1H-benzimidazol-2-amine]
IC50 [1]: 23.5 nM | IC50 ([2]; 72 h): 806 nM | IC50 [3]: 1020 nM | IC50 [4]: 154 nM | IC50 [5]: 2340 nM

O=C(Nc1ccccc1)Nc1ccc(-c2nc(N3CCOCC3)nc(N3C4CCC3CC(O)C4)n2)cc1 (centres unmarked) [Example 685, 1-{4-[4-(3-hydroxy-8-azabicyclo[3.2.1]oct-8-yl)-6-morpholin-4-yl-1,3,5-triazin-2-yl]phenyl}-3-phenylurea]
IC50 [1]: 0.825 nM | IC50 ([2]; 72 h): > 10000 nM | IC50 [3]: > 10000 nM | IC50 [4]: 7 nM | IC50 [5]: 26.5 nM

CN1CCN(Nc2nc(-c3ccc(NC(=O)Nc4ccccc4)cc3)nc(N3CCOCC3)n2)CC1 [Example 686, 1-(4-{4-[(4-methylpiperazin-1-yl)amino]-6-morpholin-4-yl-1,3,5-triazin-2-yl}phenyl)-3-phenylurea]
IC50 [1]: 26 nM | IC50 ([2]; 72 h): 569 nM | IC50 [3]: 1100 nM | IC50 [4]: 77 nM | IC50 [5]: 540 nM

CN1CCC(Oc2nc(-c3ccc(NC(=O)Nc4ccncc4)cc3)nc(N3CCOCC3)n2)CC1 [Example 687, 1-(4-{4-[(1-methylpiperidin-4-yl)oxy]-6-morpholin-4-yl-1,3,5-triazin-2-yl}phenyl)-3-pyridin-4-ylurea]
IC50 [1]: 4.85 nM | IC50 ([2]; 72 h): 355 nM | IC50 [3]: 389 nM | IC50 [4]: 4 nM | IC50 [5]: 39.5 nM

O=C(Nc1ccncc1)Nc1ccc(-c2nc(OC3CCNCC3)nc(N3CCOCC3)n2)cc1 [Example 688, 1-{4-[4-morpholin-4-yl-6-(piperidin-4-yloxy)-1,3,5-triazin-2-yl]phenyl}-3-pyridin-4-ylurea]
IC50 [1]: 8 nM | IC50 ([2]; 72 h): 1410 nM | IC50 [3]: 1950 nM | IC50 [4]: 3 nM | IC50 [5]: 35.5 nM

CCOC(=O)N1CCC(Oc2nc(-c3ccc(NC(=O)Nc4ccncc4)cc3)nc(N3CCOCC3)n2)CC1 [Example 689, ethyl 4-[(4-morpholin-4-yl-6-{4-[(pyridin-4-ylcarbamoyl)amino]phenyl}-1,3,5-triazin-2-yl)oxy]piperidine-1-carboxylate]
IC50 [1]: 39 nM | IC50 ([2]; 72 h): 53 nM | IC50 [3]: 85 nM | IC50 [4]: 217 nM | IC50 [5]: 2480 nM

CCNC(=O)N1CCC(Oc2nc(-c3ccc(NC(=O)Nc4ccncc4)cc3)nc(N3CCOCC3)n2)CC1 [Example 690, N-ethyl-4-[(4-morpholin-4-yl-6-{4-[(pyridin-4-ylcarbamoyl)amino]phenyl}-1,3,5-triazin-2-yl)oxy]piperidine-1-carboxamide]
IC50 [1]: 0.525 nM | IC50 ([2]; 72 h): 112 nM | IC50 [3]: 405 nM | IC50 [4]: 5 nM | IC50 [5]: 83.5 nM
